{
  "source": "patent US10208007B2",
  "about": "“Use of strigolactones and strigolactone analogs for treating proliferative conditions” (The State of Israel, Ministry of Agriculture & Rural …, priority 2011, dated 2019)",
  "key": {"CYCB1": {"system": "CYCB1", "assay": "Gene transcription level by quantitative PCR: CYCB1", "assay_type": "in vivo, Arabidopsis thaliana", "details": "for CYCB1 transcription level versus controls: 3 μM", "experimental": "Seeds of homozygous lines of Arabidopsis thaliana wild type (WT; Columbia; Col-0) and max2-1 mutant (http://abrc.osu.edu/) were surface-sterilized and germinated on 1/2 Murashige and Skoog (MS) plates supplemented with 1% sucrose and solidified with 0.7% agar. Plates were incubated vertically in the dark at 4° C. for two days to synchronize germination. Three days after germination, seedlings were gently transferred using forceps to 1/2 MS plates containing various concentrations of GR-24 as a mixture of four diastereomers: (±)-GR-24 and (±)-2'-epi-GR-24. The root tip of the transferred seedling was marked on the plates. The plates remained unsealed to prevent accumulation of gases (e.g., ethylene), and were positioned in an upright 45° position, and incubated at 22° C. with a light intensity of […] photons m-2 s-1 provided by white fluorescent tubes and under a photoperiod of 16 hours exposure to light/8 hours in the dark for 6-12 days. GR-24 treatments were conducted at concentrations ranging from 2.7×10^-6 to 13.5×10^-6 M. […] GR-24, ST-357 and ST-362 were initially dissolved in acetone to give a 4.5 mM, 10 μM and 10 μM solutions, respectively, which were then further diluted with double-distilled sterile water (DDW). […] In each of the experiments, non-treated roots were compared to the respective acetone control. Where no difference was observed between the various controls, non-treated roots are shown. Where differences were recorded between non-treated and acetone controls, the comparison was made between GR-24, ST-357 and ST-362-treated and acetone-treated roots. RNA was extracted from seedlings grown and treated as described in Example 1. Quantitative PCR was performed by amplifying fragments of genes of interest (Tables 6 & 7). Arabidopsis 15S ribosomal RNA (GenBank accession no. AT1G04270.1) served as the reference gene for the amount of RNA, and was amplified using specific primers (forward) [NT] and (reverse) [NT]. The experiment was performed in 5-6 biological replicates; each replicate included 8 plants, on which 3 technical repeats were performed. Means and standard error were determined from all biological replicates. Primers were designed using PrimerQuest software (Integrated DNA Technologies). RNA was extracted using Trizol (Invitrogen, Carlsbad, Calif., USA) using the manufacturer's protocol. 1 μg RNA was reverse-transcribed in a total volume of 20 μl using the Superscript First strand cDNA synthesis kit (Invitrogen). PCR was performed in triplicate using an ABI-Prism 7900 instrument (Applied Biosystems, Foster City, Calif.) and SYBR Green I detection (Applied Biosystems) according to the manufacturer's protocol. The expression of each target gene was normalized to the expression of GAPDH RNA and is presented as the ratio of the target gene to GAPDH RNA, expressed as 2-ΔCt, where Ct is the threshold cycle and ΔCt=[NT] GAPDH."}, "pT308 AKT": {"system": "pT308 AKT", "assay": "Immunoblot of survival signaling", "assay_type": "cell-based, human", "details": "MDA-MB-231 cells, 10 ppm", "experimental": "Protein concentration was determined using the BCA Protein Assay (Pierce), and 20-50 μg of lysate were separated in a 4-12% SDS-PAGE gel. After transfer, membranes were blocked for 15-30 min at room temperature in 5% BSA (Sigma) in Tris-buffered saline containing 0.1% Tween-20. Primary antibody was incubated for either 1.5 hours at room temperature or overnight at 4° C. Secondary antibody was incubated for 30-45 min at room temperature, and proteins were visualized with West Pico Stable (Pierce). All antibodies were used at 1:1000 dilution unless otherwise stated. pT308AKT, AKT, pT180/Y182, pT183/Y185 P38MAPK, pP38MAPK, pT202/Y204 pERK1/2, ERK1, pT183/Y185, pJNK1/2, JNK1, pT71ATF2, pT581MSK1, pT14 Cdc2, Cdc2, pT68Chk2 (cell signaling), pT334MAPKAPK, pS82HSP27 (Cell Signaling Technology, Danvers, Mass.), α-tubulin (Biomarkers, 1:50,000), Cyclin B1 (Santa Cruz Biotechnologies) and horseradish peroxidase-conjugated anti-rabbit IgG and anti-mouse IgG (1:5,000, Pierce).\nThe PI3K/AKT pathway regulates a wide range of cellular functions including survival and proliferation. […] PDK1 phosphorylates AKT on T308, which is itself activated by phosphorylation on S241. Levels of pS241 PDK1 were reduced upon strigolactone treatment and correlated closely with reduced AKT phosphorylation observed in strigolactone treated cells (FIG. 14)."}, "HCT116 cells": {"system": "HCT116 cells", "assay": "XTT viability after timed exposure and strigolactone removal", "details": "Homo sapiens", "protocol": "At each time point the strigolactone analog was removed and the media was replaced with fresh growth media without strigolactone analog. […] In addition, viability of MDA-MB-231 cells was assessed after 24 hours by using an XTT assay (FIG. 9B). […] After 2, 4 or 24 hours the media was removed, cells were washed and media was replaced with growth media minus strigolactone analog."}},
  "data": [
    {"smiles": "CC1=C[C@H](O/C=C2/C(=O)O[C@@H]3c4ccccc4C[C@H]23)OC1=O", "note": "(relative stereo) [GR-24, (3aR*,8bS*,E)-3-(((R*)-4-methyl-5-oxo-2,5-dihydrofuran-2-yloxy)methylene)-3,3a,4,8b-tetrahydro-2H-indeno[1,2-b]furan-2-one]", "values": [
      {"measurement": "CYCB1 transcription level versus controls", "setting": "CYCB1; WT seedlings", "value": "0.008 ± 0.003"},
      {"measurement": "CYCB1 transcription level versus controls", "setting": "CYCB1; max2-1 seedlings", "value": "0.211 ± 0.078"},
      {"measurement": "CYCB1 transcription relative to controls", "setting": "CYCB1; root tips, 2.7 μM", "value": "0.97±0.47"},
      {"measurement": "CYCB1 transcription in comparison to controls", "setting": "CYCB1; root tips, 13.5 μM", "value": "0.16±0.00"}
    ]},
    {"smiles": "CC1=CC(O/C=C2\\Cc3c(n(C)c4ccccc34)C2=O)OC1=O", "note": "(racemic) [EG-5, (±) (2E)-4-methyl-2-(4-methyl-5-oxo-2,5-dihydrofuran-2-yloxymethylene)-1,4-dihydro-2H-cyclopenta[b]indol-3-one]", "values": [
      {"measurement": "pT308 AKT levels / inhibition of AKT phosphorylation", "setting": "pT308 AKT", "value": "slight delay in the inhibition of AKT phosphorylation, occurring between 8 and 24 hours"}
    ]},
    {"smiles": "CC1=CC(O/C=C2/C(=O)c3c(c4cc(-c5scc6c5OCCO6)ccc4n3C)C2C)OC1=O", "note": "(stereo not shown) [ST-362, (2E)-2-[(2,5-dihydro-4-methyl-5-oxofuran-2-yloxy)methylene]-1,2-dihydro-7-(2,3-dihydrothieno[3,4-b][1,4]dioxin-7-yl)-1,4-dimethyl-cyclopenta[b]indole-3-(4H)-one]", "values": [
      {"measurement": "CYCB1 transcription level versus controls", "setting": "CYCB1; WT seedlings", "value": "0.008 ± 0.007"}
    ]},
    {"smiles": "CC1=CC(O/C=C2/C(=O)c3c(c4cc(-c5cccs5)ccc4n3C)C2C)OC1=O", "note": "(stereo not shown) [ST-357, (2E)-1,4-dimethyl-2-((4-methyl-5-oxo-2,5-dihydrofuran-2-yloxy)methylene)-7-(thiophen-2-yl)-1,2-dihydrocyclopenta[b]indol-3(4H)-one]", "values": [
      {"measurement": "CYCB1 transcription level versus controls", "setting": "CYCB1; WT seedlings", "value": "0.460 ± 0.362"},
      {"measurement": "viability at 10 ppm", "setting": "HCT116 cells; HCT-116, 1 h", "value": 75, "unit": "%"},
      {"measurement": "viability at 20 ppm", "setting": "HCT116 cells; HCT-116, 1 h", "value": 63, "unit": "%"},
      {"measurement": "viability at 20 ppm", "setting": "HCT116 cells; HCT-116, 4 h", "value": 50, "unit": "%"},
      {"measurement": "viability at 20 ppm", "setting": "HCT116 cells; HCT-116, 8 h", "value": 10, "unit": "%"}
    ]},
    {"smiles": "CC1=CC(O/C=C2\\Cc3c(n(C)c4cc(-c5cccs5)ccc34)C2=O)OC1=O", "note": "(racemic) [MEB-55, (±) 2E-4-methyl-2-(4-methyl-5-oxo-2,5-dihydrofuran-2-yloxymethylene)-6-thiophen-2-yl-1,4-dihydro-2H-cyclopenta[b]indol-3-one]", "values": [
      {"measurement": "pT308 AKT levels / inhibition of AKT phosphorylation", "setting": "pT308 AKT", "value": "decreased dramatically between 4 and 8 hours"},
      {"measurement": "viability at 10 ppm", "setting": "HCT116 cells; HCT-116, 1 h", "value": 75, "unit": "%"},
      {"measurement": "viability at 20 ppm", "setting": "HCT116 cells; HCT-116, 1 h", "value": 68, "unit": "%"},
      {"measurement": "viability at 10 ppm", "setting": "HCT116 cells; HCT-116, 4 h", "value": 18, "unit": "%"},
      {"measurement": "viability at 20 ppm", "setting": "HCT116 cells; HCT-116, 4 h", "value": 0, "unit": "%"}
    ]}
  ]
}
